Measurements reported in publication PMC7615677 (Science translational medicine, 2023).
Where two headings read alike, the source gives them in different places.

Experiments:
[1] = In vitro cytotoxicity assay; assay type: cell-based; details: rat, L-6 rat skeletal myoblasts
In vivo pharmacokinetics = test: In vivo pharmacokinetics; design: species or system male Sprague Dawley rats; details: for Vd: read-out: Plasma Vss
Method: Single dose intravenous (IV) pharmacokinetic (PK) studies in male Sprague Dawley rats and IV and oral PK studies in female BALB/c mice were conducted at Monash University. […] Blood was sampled via a cannula implanted in the carotid artery (also on the day prior to dosing) at pre-determined time points up to 24 h post-dose. Samples were transferred to vials containing heparin as an anticoagulant, gently mixed and centrifuged, and plasma separated for subsequent quantitative analysis using LC-MS. […] A dose of 25 mg/kg prepared in an aqueous suspension vehicle containing 0.5% hydroxypropyl methylcellulose, 0.5% benzyl alcohol and 0.4% polysorbate 80 (0.2 mL per mouse) was also dosed via oral gavage. Mouse blood was sampled via submandibular bleed up to 24 h post-dose (n=2 mice per time point, n=3 samples per mouse) into vials containing heparin and plasma was separated for quantitative analysis as described above.
Additional PK studies were also conducted by WuXi AppTec Co, Ltd (Shanghai, China) according to protocols reviewed and approved by DNDi. […] IV and oral formulations for rats, mice and hamsters were the same as described above. For dogs, the IV dose was administered in saline containing 2% DMSO and 3% Solutol HS-15 and the oral formulation was as described above. Blood was sampled up to 48 h post-dose into vials containing potassium EDTA as an anticoagulant, proteins were precipitated with acetonitrile and plasma was separated and assayed by LC-MS.
Single dose pharmacokinetic parameters (clearance, volume of distribution and half-life) were initially estimated using non-compartmental methods and oral bioavailability was calculated using the ratio of the dose corrected AUC after oral dosing relative to that after IV administration. Nominal doses were used in the calculations unless the measured dose differed by more than 15% from the nominal dose, in which case the measured dose was used. Where a full concentration versus time profile was obtained from a single animal, parameters were estimated for each animal and mean and standard deviations calculated. In the case of mice where sparse sampling was used with multiple animals per time point, the data analysis was conducted using the mean profile.

[2] = Binding to hepatocytes, calculated from microsomal binding; assay type: in vitro ADME; details: human, 1 x 10^6 cells/mL, read-out: hepatocyte fraction unbound
Method: Dialysis was conducted for 6 h and parallel non-dialyzed samples were included to confirm the absence of compound degradation. Binding to hepatocytes (at a cell density of 1 x 10^6 cells/mL) was calculated from the measured microsomal binding (at 1 mg/mL) as described previously ([26]). The fraction unbound (fu) was determined from the ratio of the dialysate to the donor concentration, assuming that the system was at steady state at the end of the dialysis period. For plasma, the data were corrected for the dilution factor to give a binding value for neat plasma according to previously published methods ([27]).

CHO-K1 cells = test: In vitro micronucleus assay; assay type: cell-based; details: absence or presence of rat liver S9
Method: The treatment time was 24 h without metabolic activation (rat liver S9) and 3 h with activation. The positive controls were bleomycin sulfate and cyclophosphamide, respectively.

AR = test: In vitro pharmacology panel (Eurofins); assay type: binding, human; details: 10 µM
From the text: (§1) Listed values represent the percent change relative to the DMSO control activity. When an IC50 had to be determined, eight different concentrations were included. All values are the mean of assay readout duplicates.

KV channel = test: In vitro pharmacology panel (Eurofins); assay type: binding, rat; details: 10 µM
From the text: as §1

Na+ channel (site 2) = test: In vitro pharmacology panel (Eurofins); assay type: binding, rat; details: 10 µM
From the text: as §1

[3] = test system: Ca2+ channel, (L,dihydropyridine site); test: In vitro pharmacology panel (Eurofins); assay type: binding, rat; details: 10 µM
From the text: as §1

BZD (central) = test: In vitro pharmacology panel (Eurofins); assay type: binding, rat; details: 10 µM
From the text: as §1

NMDA receptor = test: In vitro pharmacology panel (Eurofins); assay type: binding, rat; details: 10 µM
From the text: as §1

[4] = male, Sprague Dawley, plasma, Rat, oral 10 mg/kg
[5] = male, Sprague Dawley, rat, plasma, rats, single oral 50 mg/kg
[6] = male, Sprague Dawley, rat, plasma, rats, single oral 100 mg/kg
[7] = male, Sprague Dawley, rat, plasma, rats, single oral 300 mg/kg

Cc1[nH]c2nc(N)nc(C)c2c1-c1ccc(C#N)c2c1OCO2 [DNDI-6174]
CC50 [1]: > 63 µM
Cmax (In vivo pharmacokinetics; [4]): 4210 ng/mL
Tmax (In vivo pharmacokinetics; [4]): 4 h
bioavailability (In vivo pharmacokinetics; [4]): 93%
half-life (In vivo pharmacokinetics; male, Sprague Dawley, rat, plasma, iv, 3 mg/kg, Rat, intravenous 3.0 mg/kg, Monash University, read-out: Apparent t1/2 (converted)): 7.9 h
AUC(0-inf) (In vivo pharmacokinetics; male, Sprague Dawley, rat, plasma, iv, 3 mg/kg, Rat, intravenous 3.0 mg/kg, Monash University, read-out: Plasma AUC0-inf): 23600 ng·h/mL
clearance (In vivo pharmacokinetics; male, Sprague Dawley, rat, plasma, iv, 3 mg/kg, Rat, intravenous 3.0 mg/kg, Monash University, read-out: Plasma CL): 2.12 mL/min/kg
Vd (In vivo pharmacokinetics; male, Sprague Dawley, rat, plasma, iv, 3 mg/kg, Rat, intravenous 3.0 mg/kg, Monash University): 1.4 L/kg
half-life (In vivo pharmacokinetics; male, Sprague Dawley, rat, plasma, iv, 3 mg/kg, Rat, intravenous 3.0 mg/kg, WuXi AppTec, read-out: Apparent t1/2 (converted)): 5.3 h
AUC(0-inf) (In vivo pharmacokinetics; male, Sprague Dawley, rat, plasma, iv, 3 mg/kg, Rat, intravenous 3.0 mg/kg, WuXi AppTec, read-out: Plasma AUC0-inf): 18500 ng·h/mL
clearance (In vivo pharmacokinetics; male, Sprague Dawley, rat, plasma, iv, 3 mg/kg, Rat, intravenous 3.0 mg/kg, WuXi AppTec, read-out: Plasma CL): 2.95 mL/min/kg
Vd (In vivo pharmacokinetics; male, Sprague Dawley, rat, plasma, iv, 3 mg/kg, Rat, intravenous 3.0 mg/kg, WuXi AppTec): 1.3 L/kg
clearance (In vivo pharmacokinetics; male, Sprague Dawley, rat, plasma, iv, 3 mg/kg, Rat, read-out: Measured in vivo CLplasma): 2.5 mL/min/kg
half-life (In vivo pharmacokinetics; male, Sprague Dawley, rat, plasma, po, 10 mg/kg, Rat, oral 10 mg/kg, read-out: Apparent t1/2 (converted)): 7 h
AUC(0-inf) (In vivo pharmacokinetics; male, Sprague Dawley, rat, plasma, po, 10 mg/kg, Rat, oral 10 mg/kg, read-out: Plasma AUC0-∞): 57700 ng·h/mL
AUC(0-inf) (In vivo pharmacokinetics; male, Sprague Dawley, rat, plasma, po, 50 mg/kg, rats, single oral 50 mg/kg, read-out: AUC0-∞): 292000 ng·h/mL
half-life (In vivo pharmacokinetics; male, Sprague Dawley, rat, plasma, po, 50 mg/kg, rats, single oral 50 mg/kg, read-out: T1/2 (converted)): 9.05 h
Cmax (In vivo pharmacokinetics; [5]): 14200 ng/mL
Tmax (In vivo pharmacokinetics; [5]): 5.7 h
Cmax (In vivo pharmacokinetics; [6]): 20900 ng/mL
Tmax (In vivo pharmacokinetics; [6]): 17 h
Cmax (In vivo pharmacokinetics; [7]): 30900 ng/mL
Tmax (In vivo pharmacokinetics; [7]): 27 h
parent compound excreted unchanged in urine (In vivo pharmacokinetics; rats, intravenous): < 1%
AUC0-24 (reported in AUC0-∞ line) (In vivo pharmacokinetics; rats, single oral 100 mg/kg): 430000 ng·h/mL
AUC0-24 (reported in AUC0-∞ line) (In vivo pharmacokinetics; rats, single oral 300 mg/kg): 562000 ng·h/mL
fraction unbound [2]: 0.63
genotoxicity, in words (CHO-K1 cells): not genotoxic
activity (% of DMSO control) (AR): 99.1%
activity (% of DMSO control) (KV channel): 98.7%
activity (% of DMSO control) (Na+ channel (site 2)): 73.9%
activity (% of DMSO control) [3]: 89.6%
activity (% of DMSO control) (BZD (central)): 90.2%
activity (% of DMSO control) (NMDA receptor): 89.6%
